Assay results reported in patent publication US20080249130A1, “Gut microsomal triglyceride transport protein inhibitors” (Sirtris Pharmaceuticals, Inc., priority 2007, published 2008).
Where two headings read alike, the source gives them in different places.

System: secretion of ApoB by HepG2 cells
Test: ApoB secretion inhibition assay in HepG2 cells (ApoB ELISA)
Format: cell-based, human
Experimental: The ability of the compounds of the present invention to inhibit the secretion of ApoB can be determined using the following cell-based assay, which measures the secretion of ApoB by HepG2 cells. ApoB has two possible metabolic fates: entrance into the lipoprotein assembly pathway within the lumen of the endoplasmic reticulum (ER), or degradation in the cytoplasm by the ubiquitin-dependent proteasome. The destiny of ApoB is determined by the relative availability of individual lipids, which is controlled by MTP (Davis, Biochim. Biophys. Acta, 1999, 1440, 1-31).
HepG2 cells (ATCC, HB-8065) are seeded in 96-well plates in DMEM with 10% FBS+pen/strep at a density of 1×10^5 cells/well (100 μl /well). Twenty-four hours after seeding, the plate is aspirated and the media changed to DMEM with 1% BSA and pen/strep, and the cells are serum-starved for 24 hours. After 24 hour serum-starvation, the plate is aspirated again and the cells are then treated for 24 hours with or without compound in DMEM with 1% BSA, 0.3 mM OA (OA complexed to BSA at a 2:1 ratio) and pen/strep. The final concentration of DMSO in the assay (from compound and control) is 0.1%. After 24 hour treatment, conditioned media is collected in an empty 96-well plate.
Cellular viability is measured using the cell permeable dye, AlamarBlue™. This dye undergoes electron reduction in viable cells but not dead cells. The reduced dye product gives a fluorescent signal which can be monitored with a fluorescence plate reader (excitation 545 nm and emission 575 nm). The amount of fluorescence generated in a given well is proportional to the number of viable cells. After collection, the 96-well plate is re-fed with 100 μl media (DMEM with 10% FBS) and 10 μl Alamar Blue™ per well, incubated for 2 hours and then read in a fluorescence plate reader.
ApoB secretion from HepG2 cells is quantitated by testing the conditioned media at […] using an ApoB ELISA kit (ALerCHEK) according to the manufacturer's instructions. The ELISA assay for ApoB is performed as follows: a polyclonal antibody against human ApoB (Chemicon) is diluted 1:1000 in carbonate-bicarbonate buffer and 100 μl are added to each well of a 96-well plate (NUNC). After 5 hours incubation at room temperature, the antibody solution is removed and wells are washed four times with PBS/0.05% TweenD 20 (Cayman Chemical Co.). Non-specific sites on the plastic plate are blocked by incubating wells for 1 to 1.5 hours in a solution of 0.5% BSA and 0.1% TweenD 20 made in PBS. One hundred microliters of a 1:20 dilution of growth medium from the HepG2 cells (made in 0.004% TweenD 20/1% BSA in PBS) is added to each well and incubated for 3 hours at room temperature. Wells are aspirated and washed four times (0.05% TweenD 20 in PBS) prior to adding 100 μl of a 1:1000 dilution (5 μg/ml) of the secondary antibody, mouse anti-human ApoB (Chemicon). After 2 hours incubation at room temperature, this solution is aspirated and the wells are again washed 4 times as above. One hundred microliters of peroxidase-conjugated affinity purified goat anti-mouse IgG (H+L) (Jackson ImmunoResearch Laboratories) (1:10,000 dilution in PBS/1% BSA/0.1% TweenD 20) is then added to each well and incubated for 1 hour at room temperature. After aspirating, the wells are washed 4 times as above and 50 μl of 1-step Ultra TMB ELISA reagent (Pierce) is added to each well and incubated for 5 minutes. The reaction is stopped by the addition of 50 μl of 2 NH2SO4 and absorbance of each well is read at 450 nm.

[1] = Homo sapiens, HepG2, Table 6, assay of Example 2, read-out: IC50 ApoB Assay

Cc1cccc(C(=O)NCC23CCC(C(=O)N[C@H](C(=O)N(C)C(C)C)c4ccccc4)(CC2)CC3)c1-c1ccc(C(C)(C)C)cc1 [Compound 70]
IC50 [1]: 13.8 nM

Cc1cccc(C(=O)NCC23CCC(C(=O)N[C@H](C(=O)NCC(C)C)c4ccccc4)(CC2)CC3)c1-c1ccc(C(C)(C)C)cc1 [Compound 71]
IC50 [1]: 14.2 nM

Cc1cccc(C(=O)NCC23CCC(C(=O)N[C@H](C(=O)N(C)CC(C)C)c4ccccc4)(CC2)CC3)c1-c1ccc(C(C)(C)C)cc1 [Compound 72]
IC50 [1]: 21.8 nM

CCCCN(C)C(=O)[C@@H](NC(=O)C12CCC(CNC(=O)c3cccc(C)c3-c3ccc(C(C)(C)C)cc3)(CC1)CC2)c1ccccc1 [Compound 74]
IC50 [1]: 19.8 nM

COc1cccc(C(=O)Nc2ccc3nc(C(=O)N[C@H](C(=O)N(C)Cc4ccc(F)cc4)c4ccccc4)sc3c2)c1-c1ccc(C(C)C)cc1 [Compound 76]
IC50 [1]: 2.8 nM

COc1cccc(C(=O)Nc2ccc3nc(C(=O)N[C@H](C(=O)N(C)Cc4ccc(F)cc4)c4ccccc4)sc3c2)c1-c1ccc(C(F)(F)F)cc1 [Compound 80]
IC50 [1]: 1.6 nM

CC(C)(C)c1ccc(-c2ccccc2C(=O)Nc2nc(-c3ccc(C(=O)N[C@H](C(=O)NCC4CC4)c4ccccc4)cc3)cs2)cc1 [Compound 81]
IC50 [1]: 61.1 nM

CC(C)CNC(=O)[C@@H](NC(=O)c1ccc(-c2csc(NC(=O)c3ccccc3-c3ccc(C(C)(C)C)cc3)n2)cc1)c1ccccc1 [Compound 82]
IC50 [1]: 197 nM

Cc1cccc(C(=O)Nc2nc(-c3ccc(C(=O)N[C@H](C(=O)N(C)CC(C)C)c4ccccc4)cc3)cs2)c1-c1ccc(C(C)(C)C)cc1 [Compound 87]
IC50 [1]: 339 nM

CCCN(C)C(=O)[C@@H](NC(=O)c1ccc(-c2csc(NC(=O)c3cccc(C)c3-c3ccc(C(C)(C)C)cc3)n2)cc1)c1ccccc1 [Compound 88]
IC50 [1]: 81.3 nM

Cc1cccc(C(=O)Nc2nc(-c3ccc(C(=O)N[C@H](C(=O)N4CCCC4)c4ccccc4)cc3)cs2)c1-c1ccc(C(C)C)cc1 [Compound 89]
IC50 [1]: 8.8 nM

Cc1cccc(C(=O)Nc2nc(-c3ccc(C(=O)N[C@H](C(=O)N(C)CC(C)C)c4ccccc4)cc3)cs2)c1-c1ccc(C(C)C)cc1 [Compound 90]
IC50 [1]: 115 nM

CC(C)CN(C)C(=O)[C@@H](NC(=O)c1ccc(-c2csc(NC(=O)c3ccccc3-c3ccc(C(C)(C)C)cc3)n2)cc1)c1ccccc1 [Compound 91]
IC50 [1]: 422 nM

CCCN(C)C(=O)[C@@H](NC(=O)c1ccc(-c2csc(NC(=O)c3ccccc3-c3ccc(C(C)(C)C)cc3)n2)cc1)c1ccccc1 [Compound 92]
IC50 [1]: 110 nM

CC(C)N(C)C(=O)[C@@H](NC(=O)c1ccc(-c2csc(NC(=O)c3ccccc3-c3ccc(C(C)(C)C)cc3)n2)cc1)c1ccccc1 [Compound 93]
IC50 [1]: 89.7 nM

CC(C)c1ccc(-c2ccccc2C(=O)Nc2nc(-c3ccc(C(=O)N[C@H](C(=O)N4CCCC4)c4ccccc4)cc3)cs2)cc1 [Compound 94]
IC50 [1]: 18.5 nM

CCCN(C)C(=O)[C@@H](NC(=O)c1ccc(-c2csc(NC(=O)c3ccccc3-c3ccc(C(C)C)cc3)n2)cc1)c1ccccc1 [Compound 95]
IC50 [1]: 228 nM

Cc1cccc(C(=O)NCC23CCC(C(=O)NC(C(=O)N4CCCC4)c4ccccc4)(CC2)CC3)c1-c1ccc(C(C)C)cc1 (stereo not drawn) [Compound 96]
IC50 [1]: 11 nM

CCCN(C)C(=O)[C@@H](NC(=O)c1ccc(-c2csc(NC(=O)c3cccc(C)c3-c3ccc(C(C)C)cc3)n2)cc1)c1ccccc1 [Compound 97]
IC50 [1]: 143 nM

Cc1cccc(C(=O)Nc2nc(-c3ccc(C(=O)N[C@H](C(=O)N(C)C(C)C)c4ccccc4)cc3)cs2)c1-c1ccc(C(C)C)cc1 [Compound 98]
IC50 [1]: 49.7 nM

CC(C)c1ccc(-c2ccccc2C(=O)Nc2nc(-c3ccc(C(=O)N[C@H](C(=O)N(C)C(C)C)c4ccccc4)cc3)cs2)cc1 [Compound 99]
IC50 [1]: 121 nM

CC(C)(C)c1csc(-c2ccccc2C(=O)NCC23CCC(C(=O)N[C@H](C(=O)N4CCCC4)c4ccccc4)(CC2)CC3)n1 [Compound 100]
IC50 [1]: 112 nM

CCCCN(C)C(=O)[C@@H](NC(=O)C12CCC(NC(=O)c3ccccc3-c3ccc(C(C)(C)C)cc3)(CC1)CC2)c1ccccc1 [Compound 101]
IC50 [1]: 11.7 nM

CC(C)CN(C)C(=O)[C@@H](NC(=O)C12CCC(NC(=O)c3ccccc3-c3ccc(C(C)(C)C)cc3)(CC1)CC2)c1ccccc1 [Compound 102]
IC50 [1]: 34.1 nM

CCCCN(C)C(=O)[C@@H](NC(=O)C12CCC(NC(=O)c3ccccc3-c3ccc(C(C)C)cc3)(CC1)CC2)c1ccccc1 [Compound 103]
IC50 [1]: 26.1 nM

CC(C)c1ccc(-c2ccccc2C(=O)NC23CCC(C(=O)N[C@H](C(=O)N4CCCC4)c4ccccc4)(CC2)CC3)cc1 [Compound 104]
IC50 [1]: 3.5 nM

CC(C)c1ccc(-c2ccccc2C(=O)NC23CCC(C(=O)N[C@H](C(=O)N(C)Cc4ccc(F)cc4)c4ccccc4)(CC2)CC3)cc1 [Compound 105]
IC50 [1]: 13.4 nM

CC(C)CN(C)C(=O)[C@@H](NC(=O)C12CCC(NC(=O)c3ccccc3-c3ccc(C(C)C)cc3)(CC1)CC2)c1ccccc1 [Compound 106]
IC50 [1]: 40.2 nM

Cc1cccc(C(=O)NC23CCC(C(=O)N[C@H](C(=O)N4CCCC4)c4ccccc4)(CC2)CC3)c1-c1ccc(C(C)(C)C)cc1 [Compound 107]
IC50 [1]: 1.7 nM | IC50 (Table 6, assay of Example 2, read-out: IC50 ApoB Assay): 1.5 nM

Cc1cccc(C(=O)NC23CCC(C(=O)N[C@H](C(=O)N(C)Cc4ccc(F)cc4)c4ccccc4)(CC2)CC3)c1-c1ccc(C(C)(C)C)cc1 [Compound 108]
IC50 [1]: 1.2 nM

COc1cccc(C(=O)NC23CCC(C(=O)N[C@H](C(=O)N4CCCC4)c4ccccc4)(CC2)CC3)c1-c1ccc(C(C)(C)C)cc1 [Compound 109]
IC50 [1]: 8.2 nM

COc1cccc(C(=O)NC23CCC(C(=O)N[C@H](C(=O)N(C)Cc4ccc(F)cc4)c4ccccc4)(CC2)CC3)c1-c1ccc(C(C)(C)C)cc1 [Compound 110]
IC50 [1]: 14.6 nM

COc1cccc(C(=O)NC23CCC(C(=O)N[C@H](C(=O)N(C)Cc4ccc(F)cc4)c4ccccc4)(CC2)CC3)c1-c1ccc(C(C)C)cc1 [Compound 111]
IC50 [1]: 110 nM

Cc1cccc(C(=O)NC23CCC(C(=O)N[C@H](C(=O)N4CCCC4)c4ccccc4)(CC2)CC3)c1-c1ccc(C(C)C)cc1 [Compound 113]
IC50 [1]: 4.4 nM

Cc1cccc(C(=O)NC23CCC(C(=O)N[C@H](C(=O)N(C)Cc4ccc(F)cc4)c4ccccc4)(CC2)CC3)c1-c1ccc(C(C)C)cc1 [Compound 114]
IC50 [1]: 3.5 nM

CCCCN(C)C(=O)[C@@H](NC(=O)C12CCC(NC(=O)c3cccc(OC)c3-c3ccc(C(C)C)cc3)(CC1)CC2)c1ccccc1 [Compound 115]
IC50 [1]: 99.3 nM

COc1cccc(C(=O)NC23CCC(C(=O)N[C@H](C(=O)N(C)CC(C)C)c4ccccc4)(CC2)CC3)c1-c1ccc(C(C)C)cc1 [Compound 116]
IC50 [1]: 247 nM

CN(Cc1ccc(F)cc1)C(=O)[C@@H](NC(=O)c1ccc2nc(NC(=O)c3ccccc3-c3ccc(C(C)(C)C)cc3)ccc2c1)c1ccccc1 [compound 3, reference compound]
IC50 (Homo sapiens, Table 1, HepG2 cells, read-out: gMTP IC50 ApoB Secretion Assay (Example 2)): 1.6 nM
